Assay results published in US20200308550A1, “TUMOR ORGANOID MODEL” (IMBA - INSTITUT FÜR MOLEKULARE BIOTECHNOLOGIE GMBH, priority 2017, published 2020).

Each compound was assayed on GBM-1 neoplastic organoids including firefly luciferase (assay: Luciferase assay-based drug testing on neoplastic organoids). Conditions: 1 μM, forty days after drug treatment, vs DMSO.
Format: cell-based, human
Procedure: FIG. 13. […] Normalized luciferase activity was presented. Statistical analysis of quantifications was performed using one-way ANOVA with Dunnett's test. **, p<0.01.
For drug testing, neoplastic organoids were first grown for 2 months, followed by drug treatment for 40 days. […] After drug treatment, neoplastic organoids were trypsinized for single cell preparation, followed by FACS sorting analysis. Total cell numbers were counted to evaluate the cytotoxicity of the drugs.
In an effort toward adapting this method for large scale screening, we modified the neoplastic cerebral organoid system to include firefly luciferase for measurement of tumor size (FIG. 13a).

Compound | relative firefly luciferase activity (tumor size)
C=CC(=O)Nc1cc2c(Nc3ccc(F)c(Cl)c3)ncnc2cc1OCCCN1CCOCC1 [Canertibib, Canertinib] | only non-significant effects
C#Cc1cccc(Nc2ncnc3cc(OCCOC)c(OCCOC)cc23)c1 [Erlotinib] | significantly reduced firefly luciferase activity
COc1cc2ncnc(Nc3ccc(F)c(Cl)c3)c2cc1OCCCN1CCOCC1 [Gefitinib] | only non-significant effects
CCOc1cc2ncc(C#N)c(Nc3ccc(F)c(Cl)c3)c2cc1NC(=O)/C=C/CN(C)C [Pelitinib] | only non-significant effects
